The text below walks through data of US20240082223A1, “DIHYDROFUROPYRIDINE DERIVATIVES AS RHO- KINASE INHIBITORS” (CHIESI FARMACEUTICI S.P.A., priority 2020, published 2024).

What all share (type): biochemical
Experiment [1] has as its target T1, ROCK2 (Homo sapiens, UniProt O75116). Briefly: In vitro inhibitory activity assay ROCK2 (Method B, ADP-Glo, 200 μM ATP). Particulars: ATP 200 μM, read-out: Method B ROCK 2 (Ki). The method, then:
(§1) In Vitro Inhibitory Activity Assay Description ROCK1 and ROCK2
(§2) The effectiveness of compounds of the present invention to inhibit Rho kinase activity can be determined in a 10 μl assay containing 40 mM Tris pH7.5, 20 mM MgCl2 0.1 mg/mL BSA, 50 μM DTT and 2.5 μM peptide substrate (Myelin Basic Protein) using an ADP-Glo kit (Promega). Compounds were dissolved in DMSO such that the final concentration of DMSO was 1% in the assay. All reactions/incubations are performed at 25° C. Compound (2 μL) and either Rho kinase 1 or 2 (4 μl) were mixed and incubated for 30 min. Reactions were initiated by addition of ATP (4 μL) such that the final concentration of ATP in the assay was 200 μM. After a 1 hour incubation […] of ADP-Glo Reagent was added and after a further 45 minute incubation 20 μL of Kinase Detection Buffer was added and the mixture incubated for a further 30 minutes. The luminescent signal was measured on a luminometer. […] Compounds were tested in dose-response format and the inhibition of kinase activity was calculated at each concentration of compound. To determine the IC50 (concentration of compound required to inhibit 50% of the enzyme activity) data were fit to a plot of % inhibition vs Log10 compound concentration using a sigmoidal fit with a variable slope and fixing the maximum to 100% and the minimum to 0%. To determine the Ki values the Cheng-Prusoff equation was utilized ([…].
Background: ADP-Glo first removes unused ATP, then detects ADP through luciferase.

The next experiment concerns the target PKA (Homo sapiens, UniProt P17612). Briefly: In vitro inhibitory activity assay for PKA (ADP-Glo), reported as selectivity ratio vs ROCK2. Particulars: Ki PKA divided by Ki ROCK2 (method B). On the procedure: In vitro inhibitory activity assay description for PKA
The effectiveness of compounds of the present invention to inhibit PKA activity can be determined in a […], assay containing 40 mM Tris pH7.5, 20 mM MgCl2 0.1 mg/mL BSA, 50 μM DTT and 260 μM peptide substrate (kemptide) using an ADP-Glo kit (Promega). Compounds were dissolved in DMSO such that the final concentration of DMSO was 1% in the assay. All reactions/incubations are performed at 25° C. Compound and PKA enzyme (6 μl) were mixed and incubated for 30 min. Reactions were initiated by addition of ATP (4 μL) such that the final concentration of ATP in the assay was 10 μM. After a 30 minute incubation 10 μL of ADP-Glo Reagent was added and after a further 1 hour incubation 20 μL of Kinase Detection Buffer was added and the mixture incubated for a further 45 minutes. The luminescent signal was measured on a luminometer. […] Compounds were tested in dose-response format and the inhibition of kinase activity was calculated at each concentration of compound. To determine the IC50 (concentration of compound required to inhibit 50% of the enzyme activity) data were fit to a plot of % inhibition vs Log10 compound concentration using a sigmoidal fit with a variable slope and fixing the maximum to 100% and the minimum to 0%. To determine the Ki values the Cheng-Prusoff equation was utilized (Ki=IC50/(1+[S]/Km).
In vitro inhibitory activities for PKA were reported as selectivity ratio vs. ROCK2. Selectivity ratio PKA/ROCK2 was calculated by dividing the Ki value for PKA by Ki value of ROCK2 (method B) and reported into table 1.

Experiment [2] addresses T2, ROCK1 (Homo sapiens, UniProt Q13464). Briefly: In vitro inhibitory activity assay ROCK1 (Method B, ADP-Glo, 200 μM ATP). The note with it: ATP 200 μM, read-out: Method B ROCK 1 (Ki). On the procedure:
as §1, §2

Experiment [3] addresses T1, ROCK2. The experiment is described as follows: In vitro inhibitory activity assay ROCK2 (Method A, ADP-Glo, 10 μM ATP). Particulars: ATP 10 μM, read-out: Method A ROCK 2 (Ki). The method, boiled down: (§3)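 Kinase reaction at 25 °C with 2.5 μM myelin basic protein, 10 μM ATP, 40 mM Tris pH 7.5, 20 mM MgCl2, 1% DMSO; enzyme and compound preincubated 30 min, reaction run 1 h, ADP measured by ADP-Glo luminescence. IC50 from variable-slope sigmoidal fit (0–100% fixed); Ki via Cheng-Prusoff.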

In experiment [4] the target is T2, ROCK1. The experiment is described as follows: In vitro inhibitory activity assay ROCK1 (Method A, ADP-Glo, 10 μM ATP). The note with it: ATP 10 μM, read-out: Method A ROCK 1 (Ki). The essentials: as §3

T1 sequence (O75116 whole entry): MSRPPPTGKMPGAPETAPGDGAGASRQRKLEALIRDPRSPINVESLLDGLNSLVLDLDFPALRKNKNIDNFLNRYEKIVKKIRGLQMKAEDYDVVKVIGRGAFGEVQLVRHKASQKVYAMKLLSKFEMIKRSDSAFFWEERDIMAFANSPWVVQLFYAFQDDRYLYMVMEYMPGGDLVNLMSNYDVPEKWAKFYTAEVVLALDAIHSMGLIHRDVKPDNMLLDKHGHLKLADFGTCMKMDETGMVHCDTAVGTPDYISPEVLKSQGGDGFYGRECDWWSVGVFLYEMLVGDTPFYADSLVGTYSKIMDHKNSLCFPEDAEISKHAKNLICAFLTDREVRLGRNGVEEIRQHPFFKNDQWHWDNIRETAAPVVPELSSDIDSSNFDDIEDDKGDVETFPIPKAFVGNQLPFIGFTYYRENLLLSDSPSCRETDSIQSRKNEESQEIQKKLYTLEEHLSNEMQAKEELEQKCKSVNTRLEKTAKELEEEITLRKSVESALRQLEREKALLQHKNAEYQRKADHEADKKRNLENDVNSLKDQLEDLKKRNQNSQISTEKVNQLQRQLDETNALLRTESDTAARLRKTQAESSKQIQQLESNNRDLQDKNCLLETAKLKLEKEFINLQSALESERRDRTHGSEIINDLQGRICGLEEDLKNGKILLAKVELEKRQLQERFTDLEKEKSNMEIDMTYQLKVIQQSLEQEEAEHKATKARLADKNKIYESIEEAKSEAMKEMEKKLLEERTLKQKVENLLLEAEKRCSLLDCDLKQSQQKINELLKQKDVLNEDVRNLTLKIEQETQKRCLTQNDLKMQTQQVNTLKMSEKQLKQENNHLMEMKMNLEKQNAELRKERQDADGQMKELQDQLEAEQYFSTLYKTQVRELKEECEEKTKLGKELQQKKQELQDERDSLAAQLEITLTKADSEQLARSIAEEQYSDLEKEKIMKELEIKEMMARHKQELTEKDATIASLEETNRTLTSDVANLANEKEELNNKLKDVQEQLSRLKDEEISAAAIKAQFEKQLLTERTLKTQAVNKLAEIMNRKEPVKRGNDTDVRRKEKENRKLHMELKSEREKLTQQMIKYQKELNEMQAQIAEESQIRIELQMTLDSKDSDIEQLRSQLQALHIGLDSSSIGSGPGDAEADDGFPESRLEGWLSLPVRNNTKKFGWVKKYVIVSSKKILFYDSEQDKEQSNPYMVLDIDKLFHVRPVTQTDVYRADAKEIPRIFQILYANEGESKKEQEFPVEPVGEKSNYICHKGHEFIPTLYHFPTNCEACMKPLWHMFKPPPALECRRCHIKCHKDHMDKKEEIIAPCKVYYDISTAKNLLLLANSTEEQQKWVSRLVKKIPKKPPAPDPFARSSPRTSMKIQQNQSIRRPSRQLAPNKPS
T2 sequence (Q13464 whole entry): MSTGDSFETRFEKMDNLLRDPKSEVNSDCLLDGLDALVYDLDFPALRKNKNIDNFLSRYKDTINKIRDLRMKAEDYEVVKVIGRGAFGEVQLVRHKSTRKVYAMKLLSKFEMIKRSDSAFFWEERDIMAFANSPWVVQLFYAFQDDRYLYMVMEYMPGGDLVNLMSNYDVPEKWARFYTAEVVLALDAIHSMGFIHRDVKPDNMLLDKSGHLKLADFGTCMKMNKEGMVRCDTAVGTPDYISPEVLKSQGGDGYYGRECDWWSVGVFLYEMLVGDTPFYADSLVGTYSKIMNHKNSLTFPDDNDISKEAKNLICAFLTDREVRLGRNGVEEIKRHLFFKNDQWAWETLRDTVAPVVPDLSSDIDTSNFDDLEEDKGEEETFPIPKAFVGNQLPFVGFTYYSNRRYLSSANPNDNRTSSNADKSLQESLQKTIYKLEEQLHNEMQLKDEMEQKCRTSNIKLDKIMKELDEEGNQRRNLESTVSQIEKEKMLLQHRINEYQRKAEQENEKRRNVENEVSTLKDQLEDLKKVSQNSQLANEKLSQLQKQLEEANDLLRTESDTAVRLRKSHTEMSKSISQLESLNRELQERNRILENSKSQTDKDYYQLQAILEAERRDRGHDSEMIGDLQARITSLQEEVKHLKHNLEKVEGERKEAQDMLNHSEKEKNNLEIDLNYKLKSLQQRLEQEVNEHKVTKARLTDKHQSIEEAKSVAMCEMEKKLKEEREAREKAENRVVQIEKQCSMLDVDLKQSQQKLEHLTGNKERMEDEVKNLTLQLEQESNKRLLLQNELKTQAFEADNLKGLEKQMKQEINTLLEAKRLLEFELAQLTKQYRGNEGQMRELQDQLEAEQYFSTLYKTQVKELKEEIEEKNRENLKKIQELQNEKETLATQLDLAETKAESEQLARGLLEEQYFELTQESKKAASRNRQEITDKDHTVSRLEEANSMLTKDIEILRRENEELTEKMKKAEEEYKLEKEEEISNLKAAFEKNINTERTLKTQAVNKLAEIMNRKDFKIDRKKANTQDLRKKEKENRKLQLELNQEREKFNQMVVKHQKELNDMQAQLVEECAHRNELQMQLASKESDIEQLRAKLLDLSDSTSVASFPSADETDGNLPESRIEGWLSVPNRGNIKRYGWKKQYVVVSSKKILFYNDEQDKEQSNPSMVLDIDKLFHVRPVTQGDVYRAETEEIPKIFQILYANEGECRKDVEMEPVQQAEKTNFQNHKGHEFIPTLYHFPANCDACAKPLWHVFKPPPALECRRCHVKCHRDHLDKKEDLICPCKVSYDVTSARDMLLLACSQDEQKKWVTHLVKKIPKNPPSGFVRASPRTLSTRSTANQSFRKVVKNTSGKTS

The Ki is the dissociation constant of the complex between target and ligand, obtained from inhibition or displacement. Regarding `Cn1cnc(CNC(=O)c2cccc(CNc3ncc(-c4cn[nH]c4)c4c3CCO4)c2)c1` [Example 8, 3-(((7-(1H-pyrazol-4-yl)-2,3-dihydrofuro[3,2-c]pyridin-4-yl)amino)methyl)-N-((1-methyl-1H-imidazol-4-yl)methyl)benzamide], the Ki on ROCK2 [1] is at most 3 nM; on ROCK1 [2], 3 to 30 nM. On PKA, the “Ratio Ki PKA/ROCK2” value is “*** (ratio≥10)”.

Take `O=C(NCc1cnon1)c1cccc(CNc2ncc(-c3cn[nH]c3)c3c2CCO3)c1` [Example 10, N-((1,2,5-oxadiazol-3-yl)methyl)-3-(((7-(1H-pyrazol-4-yl)-2,3-dihydrofuro[3,2-c]pyridin-4-yl)amino)methyl)benzamide]: the Ki on ROCK2 [1] and on ROCK1 [2] was at most 3 nM each time. Also, the “Ratio Ki PKA/ROCK2” value at PKA is on record as “*** (ratio≥10)”.

On to `O=C(NC1CC(F)(F)C1)c1cccc(CNc2ncc(-c3cn[nH]c3)c3c2CCO3)c1` [Example 12, 3-(((7-(1H-pyrazol-4-yl)-2,3-dihydrofuro[3,2-c]pyridin-4-yl)amino)methyl)-N-(3,3-difluorocyclobutyl)benzamide], for which the Ki at ROCK2 [1] and at ROCK1 [2] was 3 to 30 nM throughout. The “Ratio Ki PKA/ROCK2” value on PKA was “*** (ratio≥10)”.

On to `CN1CCn2nc(NC(=O)c3cccc(CNc4ncc(-c5cn[nH]c5)c5c4CCO5)c3)cc2C1` [Example 15, 3-(((7-(1H-pyrazol-4-yl)-2,3-dihydrofuro[3,2-c]pyridin-4-yl)amino)methyl)-N-(5-methyl-4,5,6,7-tetrahydropyrazolo[1,5-a]pyrazin-2-yl)benzamide], for which the Ki at ROCK2 [1], at ROCK2 [3], on ROCK1 [4] and at ROCK1 [2] was at most 3 nM each time. Moreover, the “Ratio Ki PKA/ROCK2” value at PKA was “*** (ratio≥10)”.

On to `CN1CCC(CCNC(=O)c2cccc(CNc3ncc(-c4cn[nH]c4)c4c3CCO4)c2)CC1` [Example 16, 3-(((7-(1H-pyrazol-4-yl)-2,3-dihydrofuro[3,2-c]pyridin-4-yl)amino)methyl)-N-(2-(1-methylpiperidin-4-yl)ethyl)benzamide], for which the Ki on ROCK2 [1], on ROCK2 [3], at ROCK1 [4] and on ROCK1 [2] was at most 3 nM each time. Besides, the “Ratio Ki PKA/ROCK2” value at PKA was “*** (ratio≥10)”.

Turning to `O=C(NCCC1CCN(C2COC2)CC1)c1cccc(CNc2ncc(-c3cn[nH]c3)c3c2CCO3)c1` [Example 28, 3-(((7-(1H-pyrazol-4-yl)-2,3-dihydrofuro[3,2-c]pyridin-4-yl)amino)methyl)-N-(2-(1-(oxetan-3-yl)piperidin-4-yl)ethyl)benzamide], the Ki on ROCK2 [1], on ROCK2 [3], at ROCK1 [4] and on ROCK1 [2] was at most 3 nM each time. For the same molecule, the “Ratio Ki PKA/ROCK2” value on PKA is on record as “*** (ratio≥10)”.

Consider `COc1ccc(NC(=O)c2cccc(CNc3ncc(-c4cn[nH]c4)c4c3CCO4)c2)nc1` [Example 31, 3-(((7-(1H-Pyrazol-4-yl)-2,3-dihydrofuro[3,2-c]pyridin-4-yl)amino)methyl)-N-(5-methoxypyridin-2-yl)benzamide], for which the Ki at ROCK2 [1] and at ROCK1 [2] was at most 3 nM in each case. Further, on PKA, the “Ratio Ki PKA/ROCK2” value is recorded as “*** (ratio≥10)”.

Take `O=C(Nc1ccncn1)c1cccc(CNc2ncc(-c3cn[nH]c3)c3c2CCO3)c1` [Example 32, 3-(((7-(1H-pyrazol-4-yl)-2,3-dihydrofuro[3,2-c]pyridin-4-yl)amino)methyl)-N-(pyrimidin-4-yl)benzamide]: the inhibitory constant (Ki) at ROCK2 [1] and on ROCK1 [2] was at most 3 nM in each case. In addition, on PKA, the “Ratio Ki PKA/ROCK2” value was “*** (ratio≥10)”.

With `CN(C)C1CCc2nc(NC(=O)c3cccc(CNc4ncc(-c5cn[nH]c5)c5c4CCO5)c3)sc2C1` (stereo not shown) [Example 33, 3-(((7-(1H-Pyrazol-4-yl)-2,3-dihydrofuro[3,2-c]pyridin-4-yl)amino)methyl)-N-(6-(dimethylamino)-4,5,6,7-tetrahydrobenzo[d]thiazol-2-yl)benzamide], the inhibition constant (Ki) on ROCK2 [1], on ROCK2 [3], at ROCK1 [4] and on ROCK1 [2] was at most 3 nM throughout. Besides, the “Ratio Ki PKA/ROCK2” value on PKA is “*** (ratio≥10)”.

Regarding `O=C(Nc1nc2c(s1)CC(NC1COC1)CC2)c1cccc(CNc2ncc(-c3cn[nH]c3)c3c2CCO3)c1` (stereo not shown) [Example 34, 3-(((7-(1H-pyrazol-4-yl)-2,3-dihydrofuro[3,2-c]pyridin-4-yl)amino)methyl)-N-(6-(oxetan-3-ylamino)-4,5,6,7-tetrahydrobenzo[d]thiazol-2-yl)benzamide], the Ki on ROCK2 [1], on ROCK2 [3], at ROCK1 [4] and on ROCK1 [2] was at most 3 nM each time. Further, the “Ratio Ki PKA/ROCK2” value on PKA is reported as “*** (ratio≥10)”.

With `CN(C)CCOc1ccc(NC(=O)c2cccc(CNc3ncc(-c4cn[nH]c4)c4c3CCO4)c2)nc1` [Example 57, 3-(((7-(1H-pyrazol-4-yl)-2,3-dihydrofuro[3,2-c]pyridin-4-yl)amino)methyl)-N-(5-(2-(dimethylamino)ethoxy)pyridin-2-yl)benzamide], the Ki on ROCK2 [1] and on ROCK1 [2] was at most 3 nM throughout. For the same molecule, at PKA, the “Ratio Ki PKA/ROCK2” value was “*** (ratio≥10)”.

With `c1ccc(CNc2ncc(-c3cn[nH]c3)c3c2CCO3)cc1` [Example C, N-Benzyl-7-(1H-pyrazol-4-yl)-2,3-dihydrofuro[3,2-c]pyridin-4-amine, reference compound], the Ki on ROCK2 [1] and on ROCK1 [2] was above 30 nM throughout. At PKA, the “Ratio Ki PKA/ROCK2” value is “* (ratio≤5)”.
